Data set [1] in a line: Particle size by Laser Diffraction (Malvern Mastersizer S). Format: physicochemical. Conditions: Example 3 batch, mineral oil as dispergent. The procedure:
In the present context, particle sizes are determined by Laser Diffraction using a Malvern Mastersizer S instrument as disclosed in details in the introductory part of the experimental section.
In the present context, particle sizes are determined by Laser Diffraction using a Malvern Mastersizer S instrument made up of a laser transmitter (LASER HELIUM-NEON-wavelength 632 nm), an optical system (300 F lens, range 0.5-900 μm), a measurement cell for suspension (beam length 2.4 mm) and a photodiode detector. The sample is analysed using mineral oil (CAS 8042-47) as dispergent.
The particle size of the so obtained Nalmefene hydrochloride dihydrate was determined by Laser Diffraction using a Malvern Mastersizer S instrument.

A short description of data set [2]: DVS (Dynamic Vapour Sorption) experiments, hygroscopicity. Format: physicochemical. The procedure: As shown in Example 1 of the present invention, DVS (Dynamic Vapour Sorption) experiments were performed at 25° C. and at 40° C. […] In contrast hereto, as shown in Example 2, Nalmefene hydrochloride as monohydrate absorbed about 2.5% water when exposed to 95% RH and 40° C.
DVS experiments were performed at 25° C. and at 40° C. The dihydrate is retained at relative humidity of 10-95%. Adsorption to the surface at high relative humidity is less than 0.2%. Desorption of the crystal water occurs slowly under 10% RH.
DVS experiments were performed at 25° C. and at 40° C. The shape of the curves was the same, only the curve at 40° C. is shown (FIG. 5).
Most of the water of hydration (4%) was absorbed at 10% RH. […] The amounts here are given as % weigh increase relative to dry, thus the weight gain corresponding to monohydrate was 4.8% and a 1.5 hydrate corresponds to a gain of 7.2%.

For data set [3] the following is noted: Brittain, Analytical Profiles of Drug Substances and Excipients (1996); cited from earlier work.
Data set [4] can be described thus: Solubility in aqueous solutions. Type of data set: physicochemical. An excerpt: To recover any unused Nalmefene hydrochloride from the methods I or II, outlined above, a method for the recovery has been developed that comprises • (i) optionally, distillation of mother liquors obtained from method (I) or (II) • (ii) basification of the mother liquors obtained in step (i), or from the methods (I) or (II), • (iii) extracting the mixture with a suitable organic solvent, • (iv) adding hydrogen chloride, and • (v) isolating the formed solid

The structures appear in SMILES notation. Where a name gives a salt, the structure may show the parent alone.

Turning to `C=C1CC[C@@]2(O)[C@H]3Cc4ccc(O)c5c4[C@@]2(CCN3CC2CC2)[C@H]1O5` [Nalmefene hydrochloride dihydrate], in data set [1], the “particle size D10” value worked out at 14 μm, the “particle size D50” value was determined as 122 μm and the “particle size D90” value is on record as 287 μm. In addition, in data set [2] (DVS at 25° C. and 40° C.), the “relative humidity at which the hydrate is retained” value was 10-95% and the “relative humidity under which desorption of the crystal water occurs slowly” value is “under 10 % RH”. Also, the “adsorption to the surface at high relative humidity” value in data set [2] (DVS at 25° C. and 40° C., high relative humidity) is recorded as “less than 0.2%”. For the same compound, the “water absorbed at 95% RH” value in data set [2] (DVS at 25° C. and at 40° C., 95% RH) is “no water was absorbed”. The “rehydration after drying at 0% RH” value in data set [2] (DVS-curve, crystal lattice retained) is “complete rehydration”. In addition, in data set [2] (hydrochloride dihydrate), the “hygroscopicity (in words)” value was “non-hygroscopic”.

With `C=C1CC[C@@]2(O)[C@H]3Cc4ccc(O)c5c4[C@@]2(CCN3CC2CC2)[C@H]1O5` [Nalmefene hydrochloride monohydrate], in data set [3], the adventitious moisture sorbed entry is recorded as “up to 1%”. Also, in data set [2] (95% RH, 40° C.), the “water absorbed when exposed to 95% RH and 40° C.” value is recorded as “about 2.5%”. Also, in data set [2] (DVS, 10% RH), the “weight increase relative to dry at 10% RH” value is 4%. Also, in data set [2] (DVS, 50% RH), the “weight increase relative to dry at 50% RH” value was 4.3%. For the same compound, the “weight increase relative to dry at 60% RH” value in data set [2] (DVS, 60% RH) was 6.9%. Also, in data set [2] (DVS, 95% RH), the “weight increase relative to dry at 95% RH” value was found to be 7.3%. Besides, in data set [2] (DVS, Example 2), the “RH above which the form changed into a new structure with higher water content” value was “above 50%”. In addition, in data set [2] (listed as Nalmefene hydrochloride as a monohydrate, hydrochloride monohydrate), the “hygroscopicity (in words)” value is on record as “hygroscopic”.

On to `C=C1CC[C@@]2(O)[C@H]3Cc4ccc(O)c5c4[C@@]2(CCN3CC2CC2)[C@H]1O5` [Nalmefene hydrochloride, 17-(cyclopropylmethyl)-4,5-α-epoxy-6-methylenemorphinan-3,14-diol hydrochloride], for which the “solubility in aqueous solutions such as water” value in data set [4] was “highly soluble”.

The values above are taken from US8754217B2, “Nalmefene hydrochloride dihydrate” (H. Lundbeck A/S, priority 2008, dated 2014).
